Test results published in US20130143855A1, “METHOD TO ALLEVIATE DIABETIC END STAGE RENAL DISEASE” (BOARD OF REGENTS OF THE UNIVERSITY OF TEXAS SYSTEM, priority 2010, published 2013).

Assays:
[1] = test system: LA-induced [Ca2+]m efflux in kidney mitochondria; assay: Linoleic acid-induced [Ca2+]m efflux in kidney mitochondria; assay type: in vivo, mouse
Description: (§1) Kidney mitochondria were prepared from db/+ or db/db mice and LA-induced [Ca^2+]m and peroxynitrite were assessed as previously described.

[2] = test system: kidney glomeruli and tubules of HF-fed db/db mice; assay: Kidney histopathology (HE, PAS, Masson's trichrome) of HF-fed mice; assay type: in vivo, mouse
Excerpt: (§2) Male db/db (BKS.Cg-m+/+Lepr^db/J), age and sex matched db/+ mice were acquired from Jackson Laboratories at age of 10 weeks and housed 4/cage or less. Animals were habitat for 2 weeks in a temperature- and humidity-controlled facility with a 12:12-h light-dark cycle, fed ad libitum with RD (7012 Teklad LM-485, Harlan Laboratories) and had free access to water.
(§3) The mice were challenged with HF (60.3% calories from fat, TD.06414, Harlan Laboratories) starting at 12 weeks of age as depicted in FIG. 1A. The HF challenge was divided into two phases: the first phase lasted 2 weeks followed by a 4-week RD feeding. The second phase of HF feeding followed the 4-week RD interval and continued to the end of the experiments (5 weeks). At the beginning of the second HF feeding, db/db mice were randomly divided into 2 groups and intraperitoneally injected with either Saline (vehicle, db/db-HF-S) or 17-DMAG (6.5 μg/Kg bodyweight, db/db-HF-D). The animal protocols were approved by the Institutional Animal Care and Use Committee (0707-001), UT Health Science Center at San Antonio.
Formalin-fixed, paraffin-embedded kidney sections were stained with haematoxylin and eosin (HE), periodic acid-Schiff (PAS), or Masson's trichrome and analyzed to evaluate kidney damages in a blinded manner. The area of glomerular PAS staining was measured by image analysis using Image-Pro Plus 4.5 (Media Cybernetics, Silverspring, Md.). A semi-quantitative assessment was performed in HE stained slides to evaluate the extent of tubular damage and graded from 1 to 5 as follows: 1: vacuolation of cytoplasm in <20% of tubules; 2: vacuoles in 20% to 40% of tubules; 3: vacuoles in 40% to 60% tubules with minimal distortion of tubular structures; 4: vacuoles in 60% to 80% of tubules with large and marked distortion of tubular profiles, pyknotic nuclei, patches of tubular atrophy and tubular degeneration; and 5: >80% of tubules with severe vacuolation, or tubular atrophy and degeneration. The fractal collagen volume was assessed by point counter grid using ImageJ (NIH) program to quantify the blue stain in the trichrome-stained sections.

[3] = test system: db/db mice challenged with high fat diet (HF), ESRD model; assay: Kidney function of HF-fed db/db mice (24 h urinary albumin, urine output, serum creatinine); assay type: in vivo, mouse
Excerpt: as §2, §3
Urine collection and other physical parameters were measured following the schedule in FIG. 1A. 24 h urine samples were collected from individual mice and urinary albumin concentration was determined using a murine albumin enzyme-linked immunosorbent assay (Albuwell M Kit; Exocell, Philadelphia, Pa.). Serum creatinine concentrations were determined by the Creatinine Companion kit (Exocell).

[4] = test system: HF-fed db/db mice with ESRD; assay: Kaplan-Meyer survival analysis of HF-fed mice; assay type: in vivo, mouse
Excerpt: as §3
Results presented as mean±S.E and Student's t-test was used to evaluate the differences between two groups. Kaplan-Meyer survival analysis was performed using the log-rank statistic to test for a significant difference among the survival curves. Differences were considered statistically significant at P<0.05.

[5] = test system: polyunsaturated fatty acid-induced mitochondrial Ca2+ efflux (PIMCE); conditions: applicant's previous studies, basis of the dose; cited from earlier work
[6] = test system: peroxynitrite generation in kidney mitochondria; assay: Linoleic acid-induced peroxynitrite generation in kidney mitochondria; assay type: in vivo, mouse; conditions: db/db-HF-D; did not reach statistical significance; FIG. 4F
Description: as §1

hsp90β1 [7] = molecular target: hsp90β1 (Homo sapiens, UniProt P14625); conditions: prolonged treatment of cells; cited from earlier work
hsp90β1 [8] = molecular target: T1, hsp90β1 (Mus musculus, UniProt P08113); assay: Western blot of hsp90β1 in kidney homogenate and isolated kidney mitochondria; assay type: in vivo; conditions: db/db-HF-D vs db/db-HF-S, daily injection
T1 construct: We measured the effect of daily 17-DMAG injection on hsp90β1 levels in the kidney of db/db-HF mice; from tissue; host or cells: kidney homogenate and isolated kidney mitochondria of HF-fed db/db mice
Description: (§4) Western blot or immunochemistry was performed with polyclonal (pAb) and/or monoclonal (mAb) primary antibodies to detect hsp90β1 and 3-NT levels as previously described. The primary antibodies used in western blots were as follows: mAb anti-3-NT (1:1000, clone 1A6, Millipore); rabbit pAb anti-3-NT (1:1000, Millipore); pAb anti-GRP94 (1:1000, Santa Cruz Biotechnology), mAb anti-Complex 1 (1:2000) and mAb anti-α-tubulin (1:1000). For the immunochemistry staining with mouse antibody, a specific procedure was performed as previously described to eliminate the direct interaction between antigen and secondary antibody.

[9] = test system: 3-nitrotyrosine (3-NT) in kidney; assay: 3-NT levels in kidney by western blot and immunochemistry; assay type: in vivo, mouse; conditions: db/db-HF-D vs db/db-HF-S
Description: as §4

[10] = db/db-HF-D vs db/db-HF-S, FIG. 2G/2H

T1 sequence (P08113 22-802): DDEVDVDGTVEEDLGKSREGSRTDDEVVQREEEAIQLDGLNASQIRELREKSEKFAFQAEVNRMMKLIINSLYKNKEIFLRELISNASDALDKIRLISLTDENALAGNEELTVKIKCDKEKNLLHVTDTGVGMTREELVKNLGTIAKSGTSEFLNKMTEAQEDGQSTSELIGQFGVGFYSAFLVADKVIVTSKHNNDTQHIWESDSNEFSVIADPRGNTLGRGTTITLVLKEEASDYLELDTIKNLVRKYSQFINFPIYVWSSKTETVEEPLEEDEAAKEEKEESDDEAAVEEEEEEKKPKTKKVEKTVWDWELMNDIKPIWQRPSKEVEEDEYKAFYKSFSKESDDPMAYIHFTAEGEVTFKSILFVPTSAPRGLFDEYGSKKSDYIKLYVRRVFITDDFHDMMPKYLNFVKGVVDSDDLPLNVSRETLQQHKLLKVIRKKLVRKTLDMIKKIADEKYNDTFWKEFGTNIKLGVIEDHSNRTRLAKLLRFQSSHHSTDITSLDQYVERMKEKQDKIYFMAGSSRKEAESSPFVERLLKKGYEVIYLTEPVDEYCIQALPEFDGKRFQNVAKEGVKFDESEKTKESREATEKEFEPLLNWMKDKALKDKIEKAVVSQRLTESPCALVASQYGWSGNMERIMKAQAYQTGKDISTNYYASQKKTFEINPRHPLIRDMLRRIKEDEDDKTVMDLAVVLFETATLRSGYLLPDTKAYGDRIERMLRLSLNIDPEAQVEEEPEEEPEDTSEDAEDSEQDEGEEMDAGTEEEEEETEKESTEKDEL
Sequence of hsp90β1 (Homo sapiens, UniProt P14625) (P14625 22-803): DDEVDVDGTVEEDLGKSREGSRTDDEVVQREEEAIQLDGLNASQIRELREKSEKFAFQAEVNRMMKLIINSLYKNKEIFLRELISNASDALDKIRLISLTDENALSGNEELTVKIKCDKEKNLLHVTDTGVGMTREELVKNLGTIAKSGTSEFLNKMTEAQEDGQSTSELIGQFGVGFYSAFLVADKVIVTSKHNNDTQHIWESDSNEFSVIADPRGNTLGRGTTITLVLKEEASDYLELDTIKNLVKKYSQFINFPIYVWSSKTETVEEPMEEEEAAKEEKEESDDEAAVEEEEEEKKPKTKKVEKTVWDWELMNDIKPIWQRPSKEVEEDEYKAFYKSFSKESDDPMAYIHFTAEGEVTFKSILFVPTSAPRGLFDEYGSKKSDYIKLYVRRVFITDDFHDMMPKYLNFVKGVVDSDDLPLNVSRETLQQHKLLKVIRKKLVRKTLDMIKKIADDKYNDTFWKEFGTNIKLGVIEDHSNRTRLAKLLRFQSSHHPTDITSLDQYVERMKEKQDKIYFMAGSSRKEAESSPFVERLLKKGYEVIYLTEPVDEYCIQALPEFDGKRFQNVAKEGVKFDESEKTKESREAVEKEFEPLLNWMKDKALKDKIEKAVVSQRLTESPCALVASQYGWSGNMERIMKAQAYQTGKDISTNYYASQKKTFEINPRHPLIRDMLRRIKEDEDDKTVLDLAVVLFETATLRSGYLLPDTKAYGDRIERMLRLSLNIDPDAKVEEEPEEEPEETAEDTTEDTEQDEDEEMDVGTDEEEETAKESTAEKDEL

17-dimethylaminoethylamino-17-demethoxygeldanamycin [17-DMAG]
rate and amplitude of LA-induced [Ca2+]m signal, difference between db/db-HF-D and db/+ groups ([1]; db/db-HF-D vs db/+): no significant differences | LA-induced [Ca2+]m efflux in kidney mitochondria ([1]; db/db-HF-D vs db/db-HF-S, FIG. 4C-E): significantly diminished | rate and amplitude of LA-induced [Ca2+]m responses ([1]; db/db-HF-D vs db/db-HF-S, FIG. 4D, 4E): effectively attenuated | glomerular and tubular abnormalities in HF-fed db/+ mice ([2]; HF-fed db/+ mice treated with 17-DMAG, FIG. 2B): did not exhibit any glomerular and tubular abnormalities | tubular vacuolation ([2]; db/db-HF-D group (also in db/db-HF-S)): evidenced | segmental glomerulosclerosis (HE staining, 100×) ([2]; db/db-HF-D vs db/db-HF-S, FIG. 2C/2D): largely prevented | tubular atrophy and degeneration (HE staining) ([2]; db/db-HF-D vs db/db-HF-S, FIG. 2E/2F): dramatic protection | segmental glomerulosclerosis and mesangial matrix expansion (PAS, 200×), glomerular lesions [2, 10]: amiiorated | tubulointerstitial fibrosis (PAS-stained tubulointerstitium) [2, 10]: largely prevented | accumulation of tubulointerstitial collagen (Masson's trichrome) ([2]; db/db-HF-D vs db/db-HF-S, FIG. 2I/2J): effectively reduced | tubular damage (index, morphometric quantification) ([2]; db/db-HF-D vs db/db-HF-S, FIG. 2K): significant alleviation | mesangial matrix expansion (morphometric quantification) ([2]; db/db-HF-D vs db/db-HF-S, FIG. 2L): significant alleviation | collagen accumulation (morphometric quantification) ([2]; db/db-HF-D vs db/db-HF-S, FIG. 2M): significant alleviation | 24 h urine output ([3]; db/db-HF-D (6.5 μg/kg i.p. daily) vs db/db-HF-S, from 17th day of second HF feeding, FIG. 1E): significantly preserved | 24 h urinary albumin excretion (albuminuria) ([3]; db/db-HF-D (6.5 μg/kg i.p. daily, second HF challenge) vs db/db-HF-S, FIG. 1D): significantly diminished | serum creatinine, difference between db/db-HF-D and db/+ groups ([3]; db/db-HF-D, 6.5 μg/kg i.p. daily): no significant difference | serum creatinine compared to db/db-HF-S group ([3]; db/db-HF-D, 6.5 μg/kg i.p. daily, FIG. 1F): significantly lowered | mortality in HF-fed db/+ mice ([4]; db/+-HF-S and db/+-HF-D groups): no mortality | survival rate ([4]; db/db-HF-D vs db/db-HF-S, log-rank, FIG. 3): significantly improved | inhibition on PIMCE [5]: maximal inhibition | toxicity to cells [5]: did not produce apparent toxicity | LA-induced peroxynitrite generation [6]: attenuated | degradation and downregulation of hsp90β1 (hsp90β1 [7]): caused degradation and downregulation | hsp90β1 levels in kidney homogenates (hsp90β1 [8]; FIG. 4A): similar | hsp90β1 levels in isolated kidney mitochondria (hsp90β1 [8]; FIG. 4B): significantly reduced | 3-NT in kidney sections by immunohistochemistry ([9]; FIG. 5C-E): effectively reduced | 3-NT level, bands with MW<50kDa, western blot with polyclonal anti-3-NT antibody ([9]; kidney homogenates, FIG. 5A): significant 3-NT level reduction | 3-NT levels in proteins <50 kDa, western blot with monoclonal antibody ([9]; kidney homogenates, FIG. 5B): significantly lowered
